# Measurements reported in BindingDB's records for doi:10.1016/j.bmcl.2012.05.087 (Actelion Pharmaceuticals, 2012).
# Test: Antagonist activity at human CRTh2 receptor in human whole blood assessed as inhibition of PGD2-induced eosinophil shape change after 10 mins by flow cytometric analysis in presence of 50% human plasma
row,IC50,Structure (SMILES)
1,41 nM,CCCCNC(=O)c1ccc(OC)c(CSc2nc3cc(F)ccc3n2CC(=O)O)c1
2,51 nM,COc1ccc(C(=O)N2CCc3ccccc32)cc1CSc1nc2cc(F)ccc2n1CC(=O)O
3,16 nM,COc1ccc(C(C)=O)cc1CSc1nc2ccccc2n1CC(=O)O
